{
  "source": "patent US20040010042A1",
  "about": "“Method for preventing decrease of breast milk amount in mammals” (Ajinomoto Co., Inc., priority 2002, published 2004)",
  "tested_on": "lactating Holstein cows in sub-clinical ketosis",
  "experiment": "Change of daily milk production after a single intravenous injection in lactating Holstein cows with sub-clinical ketosis",
  "type": "in vivo",
  "description": "Ten lactating Holstein cows in the immediate post-partum period of which milk production was 10-15% decreased in comparison with that of one week before the beginning of test due to sub-clinical ketosis were used. All cows were supplied with a complete feed for lactating cows composed of corn silage and concentrate containing grains, oil meals, animal proteins and vitamins/minerals. On the first day in the test, a solution containing 29 g of L-glutamine dissolved in 1 liter of distilled water for injection was injected into the cows through the cervical vein. The cows were then milked twice a day for one month, and the milk amount was measured. Ten lactating Holstein cows in sub-clinical ketosis were selected as negative controls according to the same criterion as in Example. On the first day in the test, 1 liter of saline was injected through the cervical vein as the negative control. On the other hand, nine lactating Holstein cows selected according to the same criterion as described above were used. On the first day in the test, 1 liter of a 25% dextrose solution was injected through the cervical vein as the positive control. Both the negative and positive controls were then supplied with the same complete feed as used in Example. The cows were then milked twice a day for one month, and the milk amount was measured. […] The X-axis indicates days after administration, and the Y-axis indicates the increment of the milk amount from that on the first day of the test. […] The increase of the milk amount was about 12 kg per day at maximum. […] Thus, the present invention can provide a novel method which is inexpensive and safe for preventing decrease of milk amount in mammals.",
  "data": [
    {"smiles": "NC(=O)CC[C@H](N)C(=O)O", "note": "[glutamine, L-glutamine]", "values": [
      {"measurement": "milk amount increase on the average, from that on the first day of the test", "setting": "single injection through the cervical vein on the first day (29 g L-glutamine in 1 liter, or 1 liter of 25% dextrose solution), milked twice a day for one month", "value": 7.6, "unit": "kg per day"},
      {"measurement": "increase of the milk amount at maximum, from that on the first day of the test", "setting": "single injection through the cervical vein on the first day (29 g L-glutamine in 1 liter, or 1 liter of 25% dextrose solution), milked twice a day for one month, FIG. 1", "value": "about 12 kg per day"},
      {"measurement": "course of the change of the milk amount after administration", "setting": "single injection through the cervical vein on the first day, followed for one month, FIG. 1", "value": "increased immediately after administration, and this tendency lasted even one month after administration"}
    ]}
  ]
}
